Data as given in patent publication US9549911B2, “Ginger metabolites and uses thereof” (North Carolina A&T State University, priority 2012, dated 2017).
pIC50: −log10 of the molar value. Like-named read-outs stand apart in the source and are kept apart here.

Assays:
[1] = tested on: human lung fibroblast cells IMR-90; assay: in vitro; assay type: cell-based
Method: Growth inhibition of human cancer and normal cells. Cell growth inhibition was determined by a MTT colorimetric assay. Human colon cancer cells HCT-116, human lung cancer cells H-1299, human colon fibroblast cells CCD-18Co, and human lung fibroblast cells IMR-90 were plated in 96-well microtiter plates with 3000 cells/well and allowed to attach for 24 h at 37° C. […] After the cells were cultured for 48 h, the medium was aspirated and cells were treated with 200 μL fresh medium containing 2.41 mmol/L MTT. […] The reading reflected the number of viable cells and was expressed as a percentage of viable cells in the control. Both HCT-116 and H-1299 cells were cultured in McCoy's 5A medium. CCD-18Co and IMR-90 cells were cultured in Eagle's modified essential medium (EMEM). All of the above media were supplemented with 10% fetal bovine serum, 1% penicillin/streptomycin, and 1% glutamine, and the cells were kept in a 37° C. incubator with 95% humidity and 5% CO2.

HCT-116 cells = assay: TUNEL apoptosis assay (Part 2); assay type: cell-based, human; details: HCT-116, 20 or 40 μM
Method: HCT-116 and H1299 cells were seeded in 6-well plates at 1×10^5 cells/well and incubated at 37° C. in 5% CO2 incubator. After 24 hours, fresh media supplemented with DMSO (control), [6]-shogaol, M2, M6, or M13 metabolites (20 μM or 40 μM) were added to the wells. After 6 or 24 hours incubation at 37° C. in 5% CO2 incubator, cells were washed and pre-treated for 15 min at room temperature with a solution of 20 μg/ml proteinase K. Cells were then washed twice with phosphate buffer saline pH 7.4 (PBS) and fixed for 10 min at room temperature using 10% neutral formaldehyde solution. After 2 washes in ddH2O, cells were resuspended in 100 μL ddH2O and applied on silanized microscope slides. Slides were incubated overnight at 37° C., and washed twice with PBS. TUNEL assay was then carried out according to the manufacturer's protocol. Cells were observed under 400× power using a Zeiss microscope A1 (Thornwood, N.Y.). 10 fields per slide were evaluated, and TUNEL+ cells (with brown coloration in the nucleus) were expressed as a percentage of the total number of cells contained in a field.

[2] = tested on: IMR90 normal human lung cells; assay: MTT cell viability (Part 4); assay type: cell-based; details: read-out: IC50 (toxicity, MTT)
A549 cells [3] = assay: Intracellular glutathione (GSH, GSH/GSSG) measurement; assay type: cell-based, human; details: A549, 10 μM
Method: The total GSH content was measured using a HT Glutathione Assay kit (Trevigen, Galthersburg, Md.). Briefly A549 cells were plated in 60×15 mm culture plates and were allowed to attach overnight at 37° C. Cells were treated with 10 μM M2 and incubated for 0, 2, 4, 8, or 24 hours. Cells were harvested and proteins were precipitated with 5% (w/v) metaphosphoric acid. Samples were then processed following the manufacturer's instructions. The measurement of the absorbance of 5-thio-2-nitrobenzoic acid (TNB) at 405 nm was used to quantify glutathione levels in each sample, which was then compared to the standard curve and corrected for protein concentration.
For measurement of oxidized glutathione (Glutathione Disulfide or GSSG), samples and GSSG standards were treated with 2M 4-vinylpyridine (1 μL/50 μL sample) at room temperature for one hour. 4-Vinylpyridine (Sigma Aldrich, St. Louis, Mo.) blocks free thiols present in the reaction, consequentially blocking the formation of new GSSG by GSH. The 2M solution was freshly prepared by diluting 4-vinylpyridine in ethanol in a ratio of approximately 1:3.6. After incubation, samples were processed using the Trevigen kit's protocol and absorbance was measured at 405 nm as described herein.
The quantity of reduced cellular glutathione (or GSH) is obtained by subtracting the oxidized samples values from the total glutathione values or: GSH(reduced)=GSH(total)−GSSG(oxidized). Ratios of reduced to oxidized glutathione are shown to further represent cellular redox status after treatment with 6S or M2.

A549 cells [4] = assay: Western blotting of apoptosis and p53 pathway markers; assay type: cell-based, human; details: A549, 20 or 40 μM; for p53 levels (Western blot): 2 and 24 hours; for pro-apoptotic markers cytochrome C, cleaved caspase 3 and 9 (Western blot): 2 hours
Method: Cell extracts were prepared by incubating cells for 5 minutes on ice with RIPA (Radio-Immunoprecipitation Assay) buffer (Thermo Fisher Scientific, Rockford, Ill.) supplemented with a protease and phosphatase inhibitor mix. Cell lysate was then centrifuged at 13,000 rpm at 4° C. for 20 minutes, and supernatant was harvested for Western blot analysis. Briefly, 30-60 μg of protein extract were separated on a 10-16% polyacrylamide gel and transferred on PVDF (polyvinylidene difluoride) membrane (Biorad, Hercules, Calif.). Membrane was blocked using a 1% casein solution in TBS-Tween 20. Primary rabbit antibodies were diluted in blocking solution and incubated with the membrane overnight at 4° C. After washing the membrane with 3 changes of TBS-T, secondary Horse Radish Peroxydase (HRP)-conjugated anti-rabbit antibody was diluted 1:3000 in blocking solution and incubated with PVDF membrane for 1 hour at room temperature. […] Films were developed using a SRX-101A Konica Minolta developer (Tokyo, Japan). The experiment was repeated independently twice to confirm the results. Fold-induction of proteins calculated by normalizing the band of interest to the loading control (β-actin), and this adjusted intensity what compared to the control (DMSO) sample.

Row | Structure (SMILES) | pIC50 [1] | induction of apoptosis (TUNEL) versus DMSO (HCT-116 cells; 6 hours) | induction of apoptosis (TUNEL) versus DMSO (HCT-116 cells; 24 hours) | pIC50 [2] | intracellular GSH levels (A549 cells [3]; 2 hours) | GSH/GSSG ratio (A549 cells [3]; 4 hours) | intracellular GSH levels (A549 cells [3]; 8 hours) | GSH/GSSG ratio (A549 cells [3]; 24 hours) | intracellular GSH levels compared to baseline (A549 cells [3]; 24 hours) | p53 levels (Western blot) (A549 cells [4]) | pro-apoptotic markers cytochrome C, cleaved caspase 3 and 9 (Western blot) (A549 cells [4]) | pIC50 ([2]; listed as 6S) | GSH/GSSG ratio (A549 cells [3]; 2 hours)
1 | CCCCCC(CC(=O)CCc1ccc(O)c(OC)c1)SC[C@H](N)C(=O)O (stereo partly shown) [M2, 5-cysteinyl-[6]-shogaol] | 4.01 | higher levels of apoptosis | Apoptosis was observed | 4.01 | significantly depleted | significantly lower | significantly higher | significantly higher | significantly increased | increase in p53 levels | elevated after 2 hours | – | –
2 | CCCCC/C=C/C(=O)CCc1ccc(O)c(OC)c1 [[6]-shogaol, reference compound] | 4.44 | higher levels of apoptosis | – | – | significantly depleted | significantly lower | significantly lower | significantly higher | significantly increased | increase in p53 levels | elevated after 2 hours | 4.44 | significantly lower
